In patent US20240239854A1, “ANTIMICROBIAL PEPTIDES AND MODIFICATIONS THEREOF” (Donald Danforth Plant Science Center, priority 2022, published 2024):
Values after ≈ are worked out from the molar mass of the structure shown.

Experiments:
Type in all cases: cell-based
[1] = tested on: Fusarium graminearum PH-1; conditions: for MIC, in-vitro antifungal activity against F. graminearum: F. graminearum PH-1, 48 hours; for F. graminearum PH-1 MIC Day1: MIC Day 1, 96-well plate, resazurin cell viability
[2] = tested on: Zymoseptoria tritici IPO323
[3] = tested on: Botrytis cinerea T4; conditions: for MIC, in-vitro antifungal activity against B. cinerea: 48 hours

| Compound | MIC, in-vitro antifungal activity against F. graminearum [1] [µM] | F. graminearum PH-1 MIC Day1 [1] [µM] | MIC against Z. tritici on day 1 [2] [µM] | MIC against Z. tritici on day 7 [2] [µM] | MIC against Z. tritici on day 14 [2] [µM] | Z. tritici IPO323 MIC Day 1 [2] [µM] | Z. tritici IPO323 MIC Day 7 [2] [µM] | Z. tritici IPO323 MIC Day 14 [2] [µM] | B. cinerea T4 MIC Day1 [3] [µM] | MIC, in-vitro antifungal activity against B. cinerea [3] [µM] |
| --- | --- | --- | --- | --- | --- | --- | --- | --- | --- | --- |
| C[C@@H]1[C@H](O)[C@@H](C)/C=C/C=C/C=C/C=C/C=C/C=C/C=C/[C@H](O[C@@H]2O[C@H](C)[C@@H](O)[C@H](N)[C@@H]2O)C[C@@H]2O[C@](O)(C[C@@H](O)C[C@@H](O)[C@H](O)CC[C@@H](O)C[C@@H](O)CC(=O)O[C@H]1C)C[C@H](O)[C@H]2C(=O)O [Amphotericin-B, reference compound] | 6 (≈ 5.54 µg/mL) | 6 | 0.84 (≈ 0.776 µg/mL) | 5.44 (≈ 5.03 µg/mL) | 8.92 (≈ 8.24 µg/mL) | 0.84 | 5.44 | 8.92 | 3 | 3 (≈ 2.77 µg/mL) |
| PD81.1.1: Pinus sylvestris wild-type defensin SEQ ID NO: 534 with N-terminal alanine, expressed in Pichia pastoris (RMCKTPSGKFKGYCVSSTNCKNVCRTEGFPTGSCDFHVASRKCYCYKPC; N-terminal alanine added; listed as Pinus sylvestris) | – | 1.5 | – | – | – | 0.5 | 0.75 | 3 | 1 | 1 |
| PD82.1.1: Pinus sylvestris wild-type defensin SEQ ID NO: 538 with N-terminal alanine, expressed in Pichia pastoris (RTCLSKSHRFHGYCVRSSSCKEICQTERFLSGECRHTHLGNRRCFCEKPC; N-terminal alanine added; listed as Pinus sylvestris) | – | 1.5 | – | – | – | 0.625 | 2 | 3.5 | 1.125 | – |
| PD83.1.1: Eucalyptus grandis wild-type defensin SEQ ID NO: 542 with N-terminal alanine, expressed in Pichia pastoris (RMCESQSHKFHGLCMSDRTCVVVCKEEDFDDGKCRGFRHRCFCRKPC; N-terminal alanine added; listed as Eucalyptus grandis) | – | >12 | – | – | – | – | – | – | >12 | – |
| PD84.1.1: Striga asiatica wild-type defensin SEQ ID NO: 546 with N-terminal alanine, expressed in Pichia pastoris (KICEYKSERFWGVCLSDIKCADVCKDESFESGDCQGLRRRCMCYNHC; N-terminal alanine added; listed as Striga asiatica) | – | >12 | – | – | – | >12 | >12 | >12 | >12 | – |
| PD85.1.1: Panax ginseng wild-type defensin SEQ ID NO: 551 with N-terminal alanine, expressed in Pichia pastoris (KLCEKASLTWSGKCGNTQNCDKQCQNWESAKHGACHKRPTWKCFCYSDC; N-terminal alanine added; Panax ginseng) | – | >12 | – | – | – | 0.625 | 1.75 | 10 | >12 | – |
| PD86.1.1: Erythranthe guttata wild-type defensin SEQ ID NO: 555 with N-terminal alanine, expressed in Pichia pastoris (SLCETPSRYFNGICFSRRNCGAICEKEGFSSGRCKAFKCVCGKDC; N-terminal alanine added; listed as Erythranthe guttata) | – | 6 | – | – | – | 7 | 12 | >12 | 12 | – |
| PD87.1.1: Raphanus sativus wild-type defensin SEQ ID NO: 560 with N-terminal alanine, expressed in Pichia pastoris (KLCQRPSGTWSGVCGNNNACKNQCIRLEKARHGSCNYVFPAHKCICYFPC; N-terminal alanine; listed as Raphanus sativus) | 0.75 | 0.75 | – | – | – | 0.375 | 1.5 | 2.5 | 0.375 | – |
| PD88.1.1: Fraxinus excelsior wild-type defensin SEQ ID NO: 565 with N-terminal alanine, expressed in Pichia pastoris (KHCAKLSKGWHGFCAPHKCSRYCIHHEGAYDGACLKHHHSKHIGCYCYYRHC; N-terminal alanine; Fraxinus excelsior) | – | >12 | – | – | – | 1.5 | 3 | 4 | 0.75 | – |
